This note sets out measurements from patent EP3501540A1, “MITOCHONDRIAL TRIFUNCTIONAL PROTEIN (MTP) INHIBITORS FOR USE IN THE TREATMENT OF HIGH MITOCHONDRIAL RESPIRATION (OX+) CANCERS” (UNIVERSITE DE BORDEAUX, priority 2017, dated 2019).

Assay [1] has as its system A549 (OX+) cells. In words: Sulphorodamine B viability assay. Type of assay: cell-based, human. Particulars: A549 (OX+) cells in vitro. How it is done: A549_LUC and H460_LUC, human lung cancer cells, were stably transfected with luciferase (pRRLsin-MND-Luc-WPRE). […] Also, they were tested as luciferase positive using direct application of 2 mL of a 150 mg/ml solution of luciferine (Firefly Luciferin, Caliper Lifescience Corp, USA), followed by immediate bioluminescent imaging using the photonIMAGER™ optima system.
(§1) Briefly, cells were seeded in 96-well plates and medium was changed after 24 h, then Test Reagent was added on top of the cell wells and incubated for up to 72h. The viability assay was performed using Sulforhodamine B colorimetric assay for viability assay following the protocol described by Vanicha Vichai & Kanyawim Kirtikara.

For assay [2], the system named is H460 (OX-) cells. Nature of the assay: Sulphorodamine B viability assay. It counts as cell-based, human. The settings on record: H460 (OX-) cells in vitro. As for the experimental part: A549_LUC and H460_LUC, human lung cancer cells, were stably transfected with luciferase (pRRLsin-MND-Luc-WPRE). The cells were maintained in DMEM medium (Gibco) 11885-084 and 11965-092 respectively, supplemented with 10% fetal bovine serum (FBS), pH 7.4 at 37°C in a humidified incubation chamber with 5% CO2. Cells were sub-cultured every 2 days and used on experiments when they reached 85% confluency. Also, they were tested as luciferase positive using direct application of 2 mL of a 150 mg/ml solution of luciferine (Firefly Luciferin, Caliper Lifescience Corp, USA), followed by immediate bioluminescent imaging using the photonIMAGER™ optima system.
as §1

Assay [3] concerns A549 cells expressing luciferase. Nature of the assay: Orthotopic mouse model of human lung OX+ adenocarcinoma, bioluminescence imaging. It counts as in vivo, mice. The settings on record: luminescence imaging at day 3 and day 18; Trimetazidine 20mg/kg/day. The text has this: All procedures using animals were approved by the Animal Care and Use Ethics Committee of the University of Bordeaux. The NOD/LtSz-scid/IL-2Rychain^null (NSG) mice were produced and housed in the University Bordeaux Segalen animal facility, according to the rules and regulations governed and enforced by the Institutional Animal Care and Use Committee. The animal facility institutional agreement number is A33063916. Animals were included in protocols between 6 and 8 weeks old. Mice were monitored weekly for body weights and were also examined for aspect and behavior during the time-course of the experiments. No changes were noticed except otherwise indicated.
The orthotopic mouse models of OX+ or OX- human LUAD were obtained by using luciferase expressing clones of A549 or H460 lung adenocarcinoma cell lines, respectively. Groups of 5 mice were anesthetized with isoflurane and 1 × 10^6 cells in a volume of 100µl were injected in the lung of 8-weeks NGS mice and imaged 20 min after injection. Bioluminescence imaging (BLI) was performed on a Bioimager following intraperitonal injection of 150 mg/kg of D-Luciferin (Interchim, Montluçon, France). After 10 min, mice were anesthetized by isoflurane and placed into a photon bioimager (BIOSPACE LAB, Paris, France) for about 20 min to acquire luminescence images. Signals were quantified with the M3Vision software (BIOSPACE LAB). […]

Assay [4] concerns A549 cells. Nature of the assay: Mass spectrometry lipidomic analysis of cells. Type of assay: cell-based, human. Particulars: inside A549 cells. As for the experimental part: (§2) Extracted samples were dissolved in 100 µL CHC13; 15 µL was injected for analysis. LC separation was achieved using a Bio-Bond 5U C4 column (Dikma). The LC solvents were as follows: buffer A, 95:5 H2O:methanol + 0.03% NH4OH; buffer B, 60:35:5 isopropanol:methanol:H2O + 0.03% NH4OH. A typical LC run consisted of the following for 70 min after injection: 0.1 mL/min 100% buffer A for 5 min, 0.4 mL/min linear gradient from 20% buffer B to 100% buffer B over 50 min, 0.5 mL/min 100% buffer B for 8 min and equilibration with 0.5 mL/min 100% buffer A for 7 min. FFA analysis was performed using a Thermo Scientific Q Exactive Plus fitted with a heated electrospray ionization source. The MS source parameters were 4 kV spray voltage, with a probe temperature of 437.5 °C and capillary temperature of 268.75 °C. Full-scan MS data was collected with a resolution of 70 k, AGC target 1 × 106, maximum (max) injection time of 100 ms and a scan range of 150-2,000 m/z. […] Extracted ion chromatograms for each FFA were generated using a m/z ± 0.01 mass window around the calculated exact mass (i.e., palmitic acid, calculated exact mass for M-H is 255.2330, and the extracted ion chromatogram was 255.22-255.24). Quantification of the FFAs was performed by measuring the area under the peak and dividing this number by the area under the peak for [^13C16]palmitate. […]

Assay [5] deals with H460 cells. Nature of the assay: Mass spectrometry lipidomic analysis of cells. Particulars: 48 hours. It counts as cell-based, human. How it is done:
as §2

The test system of assay [6] is A549 (OX+) cells. In words: Oxygen consumption by high-resolution respirometry. It counts as cell-based, human. The settings on record: 500µM for 48H. How it is done: O2 consumption rates were measured polarographically using high-resolution respirometry (Oroboros Oxygraph-O2K). After the treatment period, medium was removed and cells were either suspended in DMEM in the presence of glucose or not for measurements of O2 consumption of intact cells, or in the respiration medium pH 7.2 (mannitol 0.25 M, MgCl2 10 mM, KH2PO4 10 mM, HEPES 10 mM, EDTA 0.08 mM, EGTA 1 mM and fatty acid free BSA 0.1%) for evaluation of respiratory complexes of permeabilized cells. Routine consumption, oligomycin-independent respiration (proton leak), FCCP-stimulated respiration (ETS capacity - maximum respiration) and ROX (oxygen consumption in presence of rotenone and antimicyn A) were measured in intact […] cells. All the values were corrected by ROX. The respiratory activity of ETF of digitonin 0.0015%-permeabilized lung cancer cells were performed following the addition of palmitoyl-carnitine 25 µM (ETF-linked substrate), rotenone 0.5 µM, ADP 100 µM. DatLab software (Oroboros Instruments, Innsbruck, Austria) was used for data acquisition and analysis.

Assay [7] deals with A549 (OX+) cells. Nature of the assay: NAD/NADH determination. The settings on record: 500µM for 48H. It counts as cell-based, human. As for the experimental part: The NAD/NADH was measure using the NAD/NADH Colorimetric assay Kit (abcam), according to the manufacturer's instructions. At 25°C absorbance was measured at 450 nm and the value used to calculate the ratio. The assay was normalized to cell number.

Consider `COc1ccc(CN2CCNCC2)c(OC)c1OC` [Trimetazidine, 1-(2,3,4-trimethoxybenzyl)piperazine], for which the cell viability result in assay [1] is recorded as “Dose-dependent reduction”; in assay [2], “no effect”. The tumor size entry in assay [3] was “Reduction of tumor size”. The “accumulation of unprocessed fatty-acids” value is on record as “accumulation” in assay [4] and “not” in assay [5]. Besides, the mitochondrial respiration result in assay [6] is “inhibited”. In assay [7], the “NADH redox state (NAD+/NADH ratio)” value was “altered”.
